Data reported in patent US20250353820A1, “ANTIVIRAL PYRAZOLOPYRIDINONE COMPOUNDS” (Novartis AG, priority 2019, published 2025).

These compounds were tested against human HSV DNA polymerase UL30 (Human herpesvirus 1 (strain 17) (HHV-1) (Human herpes simplex virus 1), UniProt P04293) (assay: biochemical). Conditions: 625 pM HSV polymerase, 20 minutes at room temperature; read-out: HSV-polymerase Biochemical IC50.

Row | Structure (SMILES) | IC50 [µM]
1 | Cn1nc(C(=O)NCc2ccc(C#N)cc2)c2c1C(=O)N(CC1(S(=O)(=O)N3CCC(C)(O)C3)CC1)CC2 (single isomer, unassigned) [Example 130, (R)- or (S)-N-(4-Cyanobenzyl)-6-((1-((3-hydroxy-3-methylpyrrolidin-1-yl)sulfonyl)cyclopropyl)methyl)-1-methyl-7-oxo-4,5,6,7-tetrahydro-1H-pyrazolo[3,4-c]pyridine-3-carboxamide] | 0.122
2 | Cn1nc(C(=O)NCc2ccc(C#N)cc2)c2c1C(=O)N(CC1(S(=O)(=O)C3CC3)CC1)CC2 [Example 3, N-(4-cyanobenzyl)-6-((1-(cyclopropylsulfonyl)cyclopropyl)methyl)-1-methyl-7-oxo-4,5,6,7-tetrahydro-1H-pyrazolo[3,4-c]pyridine-3-carboxamide] | 0.055
3 | Cn1nc(C(=O)NCc2ccc(Cl)cc2)c2c1C(=O)N(CC1(S(=O)(=O)C3CC3)CC1)CC2 [Example 4, N-(4-Chlorobenzyl)-6-((1-(cyclopropylsulfonyl)cyclopropyl)methyl)-1-methyl-7-oxo-4,5,6,7-tetrahydro-1H-pyrazolo[3,4-c]pyridine-3-carboxamide] | 0.048
4 | Cn1nc(C(=O)NCc2ccc(F)cc2)c2c1C(=O)N(CC1(S(=O)(=O)C3CC3)CC1)CC2 [Example 5, 6-((1-(Cyclopropylsulfonyl)cyclopropyl)methyl)-N-(4-fluorobenzyl)-1-methyl-7-oxo-4,5,6,7-tetrahydro-1H-pyrazolo[3,4-c]pyridine-3-carboxamide] | 0.416
5 | CN(Cc1ccc(C#N)cc1)C(=O)c1nn(C)c2c1CCN(CC1(S(=O)(=O)C3CC3)CC1)C2=O [Example 6, N-(4-Cyanobenzyl)-6-((1-(cyclopropylsulfonyl)cyclopropyl)methyl)-N,1-dimethyl-7-oxo-4,5,6,7-tetrahydro-1H-pyrazolo[3,4-c]pyridine-3-carboxamide] | 0.959
6 | Cc1ccc(CNC(=O)c2nn(C)c3c2CCN(CC2(S(=O)(=O)C4CC4)CC2)C3=O)cc1 [Example 8, 6-((1-(Cyclopropylsulfonyl)cyclopropyl)methyl)-1-methyl-N-(4-methylbenzyl)-7-oxo-4,5,6,7-tetrahydro-1H-pyrazolo[3,4-c]pyridine-3-carboxamide] | 1.63
7 | Cn1nc(C(=O)NCc2ccc(C#N)c(F)c2)c2c1C(=O)N(CC1(S(=O)(=O)C3CC3)CC1)CC2 [Example 9, N-(4-Cyano-3-fluorobenzyl)-6-((1-(cyclopropylsulfonyl)cyclopropyl)methyl)-1-methyl-7-oxo-4,5,6,7-tetrahydro-1H-pyrazolo[3,4-c]pyridine-3-carboxamide] | 0.045
8 | Cn1nc(C(=O)NCc2ccc(Cl)s2)c2c1C(=O)N(CC1(S(=O)(=O)C3CC3)CC1)CC2 [Example 10, N-((5-Chlorothiophen-2-yl)methyl)-6-((1-(cyclopropylsulfonyl)cyclopropyl)methyl)-1-methyl-7-oxo-4,5,6,7-tetrahydro-1H-pyrazolo[3,4-c]pyridine-3-carboxamide] | 0.641
9 | Cc1cc(CNC(=O)c2nn(C)c3c2CCN(CC2(S(=O)(=O)C4CC4)CC2)C3=O)ccc1C#N [Example 11, N-(4-Cyano-3-methylbenzyl)-6-((1-(cyclopropylsulfonyl)cyclopropyl)methyl)-1-methyl-7-oxo-4,5,6,7-tetrahydro-1H-pyrazolo[3,4-c]pyridine-3-carboxamide] | 2.23
10 | Cc1cc(C#N)ccc1CNC(=O)c1nn(C)c2c1CCN(CC1(S(=O)(=O)C3CC3)CC1)C2=O [Example 12, N-(4-Cyano-2-methylbenzyl)-6-((1-(cyclopropylsulfonyl)cyclopropyl)methyl)-1-methyl-7-oxo-4,5,6,7-tetrahydro-1H-pyrazolo[3,4-c]pyridine-3-carboxamide] | 0.346
11 | Cn1nc(C(=O)NCc2ccc(C#N)cc2F)c2c1C(=O)N(CC1(S(=O)(=O)C3CC3)CC1)CC2 [Example 13, N-(4-Cyano-2-fluorobenzyl)-6-((1-(cyclopropylsulfonyl)cyclopropyl)methyl)-1-methyl-7-oxo-4,5,6,7-tetrahydro-1H-pyrazolo[3,4-c]pyridine-3-carboxamide] | 0.311
